# Results from patent US10689354B2, “Aminoazole derivative” (Teijin Pharma Limited, priority 2015, dated 2020).
# Assays:
# human androgen receptor = biological target: T1, human androgen receptor (Homo sapiens, UniProt P10275); test: Reporter assay of an androgen receptor responsive sequence (luciferase, transiently transfected HEK293 cells); assay type: cell-based; conditions: 24 hours incubation, relative to activity of 100 nM DHT, read-out: AR transcriptive activity (pEC50) (converted)
# T1 construct: expressed in transfected cells; host or cells: HEK293
# T1 sequence (P10275 1-920): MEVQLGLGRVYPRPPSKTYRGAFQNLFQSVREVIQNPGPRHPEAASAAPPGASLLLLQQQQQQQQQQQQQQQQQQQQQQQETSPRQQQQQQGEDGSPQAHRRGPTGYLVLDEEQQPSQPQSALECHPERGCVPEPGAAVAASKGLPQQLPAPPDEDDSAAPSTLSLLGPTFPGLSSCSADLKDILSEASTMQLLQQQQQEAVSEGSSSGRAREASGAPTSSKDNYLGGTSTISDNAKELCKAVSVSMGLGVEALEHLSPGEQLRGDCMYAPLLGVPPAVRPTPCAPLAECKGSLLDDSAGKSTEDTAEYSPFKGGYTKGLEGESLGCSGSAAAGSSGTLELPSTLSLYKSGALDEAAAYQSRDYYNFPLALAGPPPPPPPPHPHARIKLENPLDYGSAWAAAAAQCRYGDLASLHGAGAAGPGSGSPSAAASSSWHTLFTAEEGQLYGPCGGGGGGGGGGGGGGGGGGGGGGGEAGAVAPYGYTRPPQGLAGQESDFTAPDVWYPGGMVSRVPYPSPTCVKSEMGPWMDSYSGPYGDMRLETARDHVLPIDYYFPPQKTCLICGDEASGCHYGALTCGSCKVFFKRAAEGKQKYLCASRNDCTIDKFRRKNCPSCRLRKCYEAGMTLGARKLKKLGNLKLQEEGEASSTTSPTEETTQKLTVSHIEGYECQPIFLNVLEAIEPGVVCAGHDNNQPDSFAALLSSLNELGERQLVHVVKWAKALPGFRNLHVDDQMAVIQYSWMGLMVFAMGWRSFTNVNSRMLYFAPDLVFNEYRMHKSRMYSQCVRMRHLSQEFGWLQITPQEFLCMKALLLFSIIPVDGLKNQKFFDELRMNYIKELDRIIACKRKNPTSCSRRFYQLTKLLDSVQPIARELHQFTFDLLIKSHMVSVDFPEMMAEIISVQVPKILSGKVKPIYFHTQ
# Procedure, shortened: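 Agonism scored as pEC50, fitted by 4-parameter curve against the response to 100 nM DHT, from dual-luciferase readout after 24 h compound treatment. Cells were HEK293 co-transfected (3 h) with human AR expression vector, androgen-responsive firefly reporter and Renilla control, in charcoal-stripped serum.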
# [1] = biological target: T2, androgen receptor (AR-LBD) (Rattus norvegicus, UniProt P15207); test: Evaluation of androgen receptor affinity (PolarScreen Androgen Receptor Competitor Assay Kit, Red; fluorescence polarization); conditions: 22° C. for 5 hours, relative to binding rate of 1 μM DHT, read-out: AR affinity (pEC50) (converted)
# T2 construct: 5 μL of 2×AR-LBD/Fluoromone AL Red Complex contained in the kit; purchased Invitrogen
# T2 sequence (P15207 651-882 limits assumed): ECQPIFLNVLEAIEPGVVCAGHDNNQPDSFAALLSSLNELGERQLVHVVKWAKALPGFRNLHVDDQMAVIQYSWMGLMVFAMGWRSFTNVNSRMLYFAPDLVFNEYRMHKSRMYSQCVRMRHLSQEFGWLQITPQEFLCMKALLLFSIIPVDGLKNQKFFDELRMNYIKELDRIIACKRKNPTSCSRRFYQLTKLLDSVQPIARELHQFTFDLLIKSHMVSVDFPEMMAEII
# Procedure, shortened: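 Test compound and the 2× AR-LBD/Fluoromone AL Red complex were combined in duplicate wells. After reacting 5 h at 22° C, polarization was measured. pEC50 was derived by 4-parameter fitting, normalizing to binding obtained with 1 μM dihydrotestosterone.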
SMILES,EC50 (human androgen receptor) [nM],EC50 [1] [nM]
"CCc1oc(N(Cc2ccc(Br)cc2)c2ccc(C#N)cc2)nc1C(=O)NS(C)(=O)=O [Compound 653, 2-[N-[(4-bromophenyl)methyl]-4-cyano-anilino]-5-ethyl-N-methylsulfonyl-oxazole-4-carboxamide]",158,50.1
"Cc1sc(N(CCc2ccc(C#N)cc2)Cc2ccc(Cl)cc2)nc1C(=O)NS(C)(=O)=O [Example 306, 2-[(4-chlorophenyl)methyl-[2-(4-cyanophenyl)ethyl]amino]-5-methyl-N-methylsulfonyl-thiazole-4-carboxamide]",100,31.6
"CS(=O)(=O)NC(=O)c1nc(N(Cc2ccc(F)cn2)c2ccc(C#N)cc2)sc1Br [Compound 640, 5-bromo-2-[4-cyano-N-[(5-fluoro-2-pyridyl)methyl]anilino]-N-methylsulfonyl-thiazole-4-carboxamide]",316,398
"Cc1sc(N(CCC2CCCCC2)Cc2ccccc2)nc1C(=O)NS(C)(=O)=O [Example 298, 2-[benzyl(2-cyclohexylethyl)amino]-5-methyl-N-methylsulfonyl-thiazole-4-carboxamide]",> 10000,100
"Cc1sc(N(CC[C@H]2CC[C@@H](O)C2)c2ccc(C#N)cc2)nc1C(=O)NS(C)(=O)=O (racemic) [Compound 436, 2-[4-cyano-N-[2-[cis-3-hydroxycyclopentyl]ethyl]anilino]-5-methyl-N-methylsulfonyl-thiazole-4-carboxamide]",1580,501
"CC(C)=CCN(c1ccc(C#N)cc1)c1nc(C(=O)NS(C)(=O)=O)c(C)s1 [Compound 439, 2-[4-cyano-N-(3-methylbut-2-enyl)anilino]-5-methyl-N-methylsulfonyl-thiazole-4-carboxamide]",126,50.1
"Cc1sc(N(CC23CC4CC(CC(C4)C2)C3)c2ccc(C#N)cc2)nc1C(=O)NS(C)(=O)=O [Compound 76, 2-[N-(1-adamantylmethyl)-4-cyano-anilino]-5-methyl-N-methylsulfonyl-thiazole-4-carboxamide]",> 10000,50.1
"COCCCS(=O)(=O)NC(=O)c1nc(N(CCc2ccc(C#N)cc2)Cc2ccc(Cl)cc2)sc1C [Compound 739, 2-[(4-chlorophenyl)methyl-[2-(4-cyanophenyl)ethyl]amino]-N-(3-methoxypropylsulfonyl)-5-methyl-thiazole-4-carboxamide]",251,31.6
"Cc1sc(N(Cc2cc(F)cc(C(F)(F)F)c2)c2ccc(C#N)cc2)nc1C(=O)NS(C)(=O)=O [Compound 416, 2-[4-cyano-N-[[3-fluoro-5-(trifluoromethyl)phenyl]methyl]anilino]-5-methyl-N-methylsulfonyl-thiazole-4-carboxamide]",158,25.1
"CCS(=O)(=O)NC(=O)c1nc(N(CCc2ccc(C#N)cc2)CC2CCCCC2)sc1C [Compound 717, 2-[2-(4-cyanophenyl)ethyl-(cyclohexylmethyl)amino]-N-ethylsulfonyl-5-methyl-thiazole-4-carboxamide]",> 10000,1000
"Cc1sc(N(Cc2cc(F)cc(OC(F)F)c2)c2ccc(C#N)cc2)nc1C(=O)NS(C)(=O)=O [Compound 518, 2-[4-cyano-N-[[3-(difluoromethoxy)-5-fluoro-phenyl]methyl]anilino]-5-methyl-N-methylsulfonyl-thiazole-4-carboxamide]",39.8,25.1
"Cc1sc(N(CCC2CCCCC2)Cc2ccc(OC(F)(F)F)cc2)nc1C(=O)NS(=O)(=O)C1CC1 [Compound 734, 2-[2-cyclohexylethyl-[[4-(trifluoromethoxy)phenyl]methyl]amino]-N-cyclopropylsulfonyl-5-methyl-thiazole-4-carboxamide]",> 10000,1000

# More lines, now with the values ahead:
EC50 (human androgen receptor) [nM],EC50 [1] [nM],SMILES
1580,316,"Cc1sc(N(CCc2ccsc2)c2ccc(C#N)cc2)nc1C(=O)NS(C)(=O)=O [Compound 132, 2-[4-cyano-N-[2-(3-thienyl)ethyl]anilino]-5-methyl-N-methylsulfonyl-thiazole-4-carboxamide]"
794,50.1,"Cc1sc(N(Cc2cccc3ccccc23)c2ccc(C#N)cc2)nc1C(=O)NS(C)(=O)=O [Compound 68, 2-[4-cyano-N-(1-naphthylmethyl)anilino]-5-methyl-N-methylsulfonyl-thiazole-4-carboxamide]"
2000,39.8,"COC[C@@H](C)Oc1ccc(CN(c2ccc(C#N)cc2)c2nc(C(=O)NS(C)(=O)=O)c(C)s2)cc1 [Compound 583, 2-[4-cyano-N-[[4-[(1R)-2-methoxy-1-methyl-ethoxy]phenyl]methyl]anilino]-5-methyl-N-methylsulfonyl-thiazole-4-carboxamide]"
251,39.8,"CCOC(=O)CS(=O)(=O)NC(=O)c1nc(N(Cc2ccccc2)c2ccc(C#N)cc2)sc1C [Compound 384, ethyl 2-[[2-(N-benzyl-4-cyano-anilino)-5-methyl-thiazole-4-carbonyl]sulfamoyl]acetate]"
398,31.6,"Cc1sc(N(Cc2ccc(OCc3ccccc3)cc2)c2ccc(C#N)cc2)nc1C(=O)NS(C)(=O)=O [Compound 393, 2-[N-[(4-benzyloxyphenyl)methyl]-4-cyano-anilino]-5-methyl-N-methylsulfonyl-thiazole-4-carboxamide]"
> 10000,79.4,"Cc1sc(N(Cc2ccccc2)c2ccc(C#N)cc2)nc1C(=O)NS(=O)(=O)CCc1ccccc1 [Compound 391, 2-(N-benzyl-4-cyano-anilino)-5-methyl-N-(2-phenylethylsulfonyl)thiazole-4-carboxamide]"
501,100,"COc1ccccc1CN(c1ccc(C#N)cc1)c1nc(C(=O)NS(C)(=O)=O)c(C)s1 [Compound 455, 2-[4-cyano-N-[(2-methoxyphenyl)methyl]anilino]-5-methyl-N-methylsulfonyl-thiazole-4-carboxamide]"
> 10000,39.8,"Cc1sc(N(Cc2cnc(-c3ccccc3F)s2)c2ccc(C#N)cc2)nc1C(=O)NS(C)(=O)=O [Compound 495, 2-[4-cyano-N-[[2-(2-fluorophenyl)thiazol-5-yl]methyl]anilino]-5-methyl-N-methylsulfonyl-thiazole-4-carboxamide]"
501,25.1,"Cc1sc(N(Cc2ccc(Cl)cc2Cl)c2ccc(C#N)cc2)nc1C(=O)NS(C)(=O)=O [Compound 413, 2-[4-cyano-N-[(2,4-dichlorophenyl)methyl]anilino]-5-methyl-N-methylsulfonyl-thiazole-4-carboxamide]"
63.1,50.1,"CS(=O)(=O)NC(=O)c1nc(N(Cc2cccc(Cl)c2)c2ccc(C#N)cc2)sc1Cl [Example 268, 5-chloro-2-[N-[(3-chlorophenyl)methyl]-4-cyano-anilino]-N-methylsulfonyl-thiazole-4-carboxamide]"
251,50.1,"Cc1sc(N(CC2Cc3ccccc3C2)c2ccc(C#N)cc2)nc1C(=O)NS(C)(=O)=O [Compound 454, 2-[4-cyano-N-(indan-2-ylmethyl)anilino]-5-methyl-N-methylsulfonyl-thiazole-4-carboxamide]"
31.6,25.1,"Cc1cccc(CN(c2ccc(C#N)cc2)c2nc(C(=O)NS(C)(=O)=O)c(C)s2)c1 [Compound 16, 2-[4-cyano-N-(m-tolylmethyl)anilino]-5-methyl-N-methylsulfonyl-thiazole-4-carboxamide]"
31.6,31.6,"Cc1sc(N(Cc2ccc(OC(F)F)c(F)c2)c2ccc(C#N)cc2)nc1C(=O)NS(C)(=O)=O [Example 172, 2-[4-cyano-N-[[4-(difluoromethoxy)-3-fluoro-phenyl]methyl]anilino]-5-methyl-N-methylsulfonyl-thiazole-4-carboxamide]"
